These results are taken from US11707557B2, “Compositions and devices incorporating water-insoluble therapeutic agents and methods of the use thereof” (COOK MEDICAL TECHNOLOGIES LLC, priority 2014, dated 2023).

Each structure is given as a SMILES string. Values after ≈ are worked out from the molar mass of the structure shown.

In one series the test system is pig skin. On the procedure: Various gallate-containing drug formulations were prepared and applied to ex vivo pig skin samples. Fresh pig skin was obtained from a local butcher, processed within three hours and then frozen. For experiments, the skin was slowly thawed, excess fat removed from the base, and cut into 1×2 cm squares. These squares were mounted and clamped on Franz diffusion cells, which kept the tissue moist and isolated and exposed a 6 mm diameter of the upper skin surface for the application of a drug loaded formulation. Skin samples were then frozen and later cryosectioned in 50 μm slices. The drug in the slices was extracted and measured by HPLC or radioactive doping methods. A drug depth profile was then established for each drug.
1. Formulations containing a drug and a gallate. The drugs were dissolved in ethanol at various concentrations along with either EGCG or TA (500 mg/mL). Each solution was pipetted into 6×5 mm diameter aluminum cups (approximately 3 mm in height) by filling and allowing the ethanol to evaporate at 50° C. until all the solution was used up (80 mg per cup).
2. Formulations containing a drug, propylene glycol (“PG”) and a gallate. 300 mg of propylene glycol was mixed with 200 mg of EGCG or TA until dissolved. Various amounts of drug were added to this mixture and dissolved. 80 mg of the resulting viscous solution was weighed into 6×5 mm aluminum cups.
3. Control Formulations. Control formulations were prepared using Glaxal base and Plogel. Glaxal base is a cream used by compounding pharmacists to manufacture topical formulations of drugs. Plogel is an alternative used for dermal formulations. […] Drug was added to a known weight of Glaxal or Plogel and levigated to produce a standard drug dispersion. These formulations were prepared the evening before the experiment. For some drugs, radioactive drug (where available) was also added as a doping additive to facilitate quantitation in tissues.
Eutectics: In some cases, gallate containing compounds and drugs were formulated in eutectic mixtures. These included a 60:40 (% w/w) mixture of menthol with ibuprofen. These agents acted as a carrier for retinoic acid, which was then dissolved in this liquid. The 3-drug eutectic/solution was then blended into the CMC/poloxamer emulsion containing EGCG (2.5%). […] The emulsion was stabilized with poloxamer.
Example 29. Pig skin studies. Aluminum cups containing drug formulations were inverted on top of the pig skin in the Franz diffusion cell so that the formulation contents were in contact with the skin. […]
Analysis. […] The amount of drug in each group of skin sections was then determined using HPLC methods, or by radioactivity counting on a liquid scintillation counter. The amount of drug in each group of skin sections was expressed as μg/g or mg/g of tissue.

The nature of series [1]: Drug concentrations obtained using EGCG at 50 mg per ml (microscopic check for particulates). The settings on record: for Drug Concentration: 1 ml of water; for Particulates present: under a microscope. The series is classed as physicochemical. How it is done: EGCG at 50 mg/ml and drug at approximately 250 micrograms per ml were dissolved in the listed solvent and dried down in a test tube under nitrogen. 1 ml of water was added, followed by vortexing. The solutions were examined for particulate matter under a microscope. If no particulates were present, the process was repeated with a higher drug amount. All the tested drugs remained in solution at the listed concentrations except for nystatin and hesperidin.

The nature of series [2]: Solubility of drug in EGCG or tannic acid solutions (dried down, PBS or water added, 0.22 micron filtered, HPLC or absorbance).
Procedure: PBS (EGCG) or water (tannic acid) was added and the final solution filtered through a 0.22 micron filter to remove any particulates. The solutions were analyzed for drug concentration using HPLC.
PBS (EGCG) or water (tannic acid) was added and the final solution filtered through a 0.22 micron filter to remove particulates. The solution was then analyzed for drug concentration using absorbance spectroscopy at 450 nm.
PBS (EGCG) or water (tannic acid) was added and the final solution was filtered through a 0.22 micron filter to remove any particulates and the solution was analyzed for drug concentration using HPLC.
PBS (EGCG) or water (tannic acid) was added and the final solution filtered through a 0.22 micron filter to remove any particulates and the solution was analyzed for drug concentration using HPLC.
PBS (EGCG) or water (Tannic acid) was added and the final solution was filtered through a 0.22 um filter to remove any particulates and the solution was analyzed for drug concentration using HPLC.
Method: drug and EGCG or tannic acid were dried down from acetonitrile (or methanol for tannic acid) solutions at various drug to EGCG or tannic acid ratios. PBS (EGCG) or water (Tannic acid pH adjusted to 7) was added and the final solution was filtered through a 0.22 um filter to remove any particulates and the solution was analyzed for drug concentration using HPLC methods.
A short description of series [3]: Lidocaine release from propylene glycol:gallate pastes into PBS. Type of series: physicochemical. On the procedure: For each formulation, 100 mg of paste was placed in the base of a round bottomed 15 mL glass test tube. […] At the start of the release experiment, 10 ml of PBS was added and the tubes left for various time periods, after which all 10 mL of the release media was removed for drug analysis. The residual mass was observed from the top, and the drop in diameter from 8 mm noted as a semi-quantitative assessed of paste pellet degradation. It was not possible to measure the degradation fully quantitatively at that time, as the pellets were fragile and water-swollen. After a few days the pellets became less fragile, and were removed from the tubes and dried on tissue paper before weighing. The drop in weight from 100 mg was then noted as the % degradation and compared with the visual observations.

The nature of series [4]: Release from PLGA microspheres +/- EGCG or tannic acid. Type of series: physicochemical. The note with it: over a 10 days period. On the procedure: Method: The method involved pipetting a solution of the polymer PLGA (usually 20% w/v) and drug (usually 5% w/w to polymer) and EGCG (e.g. 20% w/w/ to polymer) in dichlomethane (DCM) (5 ml) into 100 ml of 2.5% PVA solution in water stirring at 450 rpm. The suspension was left stirring for 2 hours and the microspheres washed 4 times in distilled water. The microspheres were then dried under vacuum for 2 days. Drug encapsulation was measured by dissolving a known weight of microspheres in 1 ml of dichloromethane followed by immediate dilution to 10 ml in 60:40 acetonitrile/water. The amount of drug or EGCG in the top and bottom phase of this solution was measured using HPLC methods (mobile phase 58:37:5 Acetonitrile:water:methanol. 1 ml per min flow on a c18 column with detection at 232 nm)
Tannic acid: An alternative method was used, termed a water-in oil-in water emulsion. […] This forms a primary emulsion of water droplets in the PLGA solution stabilized by Span. When this emulsion was pipetted into the PVA solution the microspheres formed well. […] The microspheres were a light brown in color indicative of tannic acid encapsulation.
Methods: In these studies, 10 mg of microspheres were suspended in 2 ml of phosphate buffered saline (pH 7.4 10 mM phosphate) in microcentrifuge tubes and tumbled at 8 rpm at 37° C. The tubes were then centrifuged at 12000×g and the supernatants collected for drug analysis by HPLC. 2 ml of fresh PBS was then placed on top of the microspheres which were returned to the 37° C. oven for continued incubation with tumbling.
At the end of the study the residual mass of polymer and drug was dissolved in DCM and drug extracted into 60:40 acetonitrile:water to measure residual drug. The amounts of residual drug were 89% for plga alone (at 31 days), 16% for EGCG and 8% for tannic acid (both at 51 days) as expressed as a % of the original loading.

The nature of series [5]: Solubility of EGCG and tannic acid in propylene glycol and PEG 300.
Source text: EGCG and tannic acid are fairly soluble in alcohol and acetonitrile. […] These solutions become more viscous and paste-like as the percentage of gallate in solution is increased. When non-drug containing pastes were placed in water, the contents of the paste (gallate, PG or PEG), which are all water soluble, dissolved away.

Regarding `CC1=C(/C=C/C(C)=C/C=C/C(C)=C/C(=O)O)C(C)(C)CCC1` [retinoic acid], the “drug uptake by pig skin relative to controls” value with pig skin was “higher levels of uptake as compared to the control formulations”.
For `CC1=CC(=O)c2c(O)cccc2C1=O` [plumbagin], in series [1], the Visual appearance result was “clear”, the “Drug Concentration” value was determined as 250 microgram/ml and the Particulates present result was “no”.
`O=c1c(O)c(-c2ccc(O)c(O)c2)oc2cc(O)cc(O)c12` [quercetin]: in series [1], the Visual appearance entry is “clear”, the “Drug Concentration” value was 250 microgram/ml and the Particulates present result is “no”.
As usually defined, the solubility is the dissolved amount per volume that the medium holds. `CO[C@H]1C[C@@H]2CC[C@@H](C)[C@@](O)(O2)C(=O)C(=O)N2CCCC[C@H]2C(=O)O[C@H]([C@H](C)C[C@@H]2CC[C@@H](O)[C@H](OC)C2)CC(=O)[C@H](C)/C=C(\C)[C@@H](O)[C@@H](OC)C(=O)[C@H](C)C[C@H](C)/C=C/C=C/C=C/1C` [rapamycin]: the solubility was around 300 µg/mL (≈ 328 µM) in series [2] (EGCG solution (200 mg/ml) in PBS, aqueous with cosolvent or surfactant or cyclodextrin, thermodynamic from solid, drug concentration solubilised at maximum EGCG concentration, EGCG 200 mg per ml, PBS); around 1500 µg/mL (≈ 1640 µM) in series [2] (tannic acid solution (500 mg/ml) in water, aqueous with cosolvent or surfactant or cyclodextrin, thermodynamic from solid, drug concentration solubilised at maximum tannic acid concentration, tannic acid 500 mg/ml, water); 2 to 3 µg/mL (≈ 2.19 to 3.28 µM) in series [2] (water, free solubility in water, no EGCG or tannic acid). In addition, the “effect of temperature on solubility” value in series [2] (EGCG solutions) is “little effect of temperature”; in series [2] (tannic acid solutions, 37° C. or 50° C. compared to 23° C.) it was “no effect of temperature”. Further, in series [2] (EGCG solutions, 24 hours), the “stability of EGCG solutions of the drug” value is on record as “stable for 24 hours”. In series [2] (tannic acid solutions, 24 hours), the “stability of tannic acid solutions of the drug” value is given as “stable for 24 hours”.
Consider `CCN(CC)CC(=O)Nc1c(C)cccc1C` [lidocaine], for which the “period of drug release” value is reported as 2-4 weeks in series [3] (EGCG:propylene glycol pastes, 20% drug loading); around 7 days in series [3] (tannic acid:propylene glycol pastes, 5% drug loading); 4-5 weeks in series [3] (tannic acid:propylene glycol pastes, 20% drug loading). The drug release in series [3] (all EGCG:propylene glycol pastes, 5% drug loading, in approximately 2 days) was around 100%.
As for `CC[C@@]1(O)C(=O)OCc2c1cc1n(c2=O)Cc2cc3ccccc3nc2-1` [camptothecin], in series [1], the Visual appearance entry is reported as “clear”, the “Drug Concentration” value worked out at 50 microgram/ml and the Particulates present entry is “no”.
In the case of `O=C(O[C@@H]1Cc2c(O)cc(O)cc2O[C@@H]1c1cc(O)c(O)c(O)c1)c1cc(O)c(O)c(O)c1` [EGCG, epi gallo catechin gallate], the “release of EGCG or Tannic acid from PLGA microspheres” value in series [4] was “approximately 45%”. In series [5], the “solubility in PEG 300 liquid” value is 25 % w/w and the “solubility in propylene glycol” value is listed as “higher than 50 % w/w”.
As for `O=C(OC[C@H]1O[C@@H](OC(=O)c2cc(O)c(O)c(OC(=O)c3cc(O)c(O)c(O)c3)c2)[C@H](OC(=O)c2cc(O)c(O)c(OC(=O)c3cc(O)c(O)c(O)c3)c2)[C@@H](OC(=O)c2cc(O)c(O)c(OC(=O)c3cc(O)c(O)c(O)c3)c2)[C@@H]1OC(=O)c1cc(O)c(O)c(OC(=O)c2cc(O)c(O)c(O)c2)c1)c1cc(O)c(O)c(OC(=O)c2cc(O)c(O)c(O)c2)c1` [tannic acid], the “release of EGCG or Tannic acid from PLGA microspheres” value in series [4] is recorded as around 65%. The “solubility in PEG 300 liquid” value in series [5] was determined as 25 % w/w.
On to `COc1ccc([C@@H]2CC(=O)c3c(O)cc(O)cc3O2)cc1O` [hesperetin], for which, in series [1], the Visual appearance result is “clear solution”, the “Drug Concentration” value is recorded as 250 microgram/ml and the Particulates present result is recorded as “no”.
For `COc1ccc2c(c1)c(CC(=O)O)c(C)n2C(=O)c1ccc(Cl)cc1` [indomethacin], in series [1], the Visual appearance result is listed as “clear solution”, the “Drug Concentration” value was 250 microgram/ml and the Particulates present entry is reported as “no”.
On to `CC(C)(C)[C@]1(O)CC2OC(=O)CC23C(=O)OC2OC(=O)[C@H](O)C231` (some centres unmarked) [bilobalide], for which, in series [1], the Visual appearance entry was “clear solution”, the “Drug Concentration” value stood at 250 microgram/ml and the Particulates present entry is reported as “no”.
As to `COc1ccc([C@@H]2CC(=O)c3c(O)cc(O[C@@H]4O[C@H](CO[C@@H]5O[C@@H](C)[C@H](O)[C@@H](O)[C@H]5O)[C@@H](O)[C@H](O)[C@H]4O)cc3O2)cc1O` [hesperedin], in series [1], the Visual appearance entry is on record as “almost clear”, the “Drug Concentration” value is listed as 125 microgram/ml and the Particulates present entry is “very”.
In the case of `CC1C(=O)OC2C(O)C34C5CC(C(C)(C)C)C36C(OC(=O)C6O)OC4(C(=O)O5)C12O` (centres unmarked) [ginkgolide B], in series [1], the Visual appearance result is listed as “clear solution”, the “Drug Concentration” value was 250 microgram/ml and the Particulates present entry is “no”.
In the case of `C[C@@H]1[C@H](O)[C@@H](C)/C=C/C=C/CC/C=C/C=C/C=C/C=C/C(O[C@H]2O[C@H](C)[C@@H](O)[C@H](N)[C@@H]2O)CC2O[C@](O)(CC(O)C(O)CCC(O)CC(O)CC(O)CC(=O)O[C@H]1C)CC(O)C2C(=O)O` (some centres unmarked) [nystatin], in series [1], the Visual appearance result was “clear solution”, the “Drug Concentration” value amounted to 125 microgram/ml and the Particulates present entry is “very”.
